According to PubChem BioAssay AID858 (Vanderbilt High Throughput Screening Facility, 2007):
Active and inactive are the calls of the source.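 The calls were made as follows: active = at least two of three replicate dose series yielding a converging curve fit, whether well or thinly supported; inactive = the rest.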

Each compound was assayed against D(1A) dopamine receptor (Homo sapiens) (UniProt P21728) (assay: concentration-dependent D1 reporter signal change – cell-based, CRE-luciferase, HEK293, dopamine EC30, D1 allosteric modulator project, dose response (AID 858);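 also: HEK 293 cells bearing human D1 receptor stimulated by dopamine at its EC30; luciferase light from a cAMP response element reporter gene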).
Sequence of D(1A) dopamine receptor (Homo sapiens) (P21728 whole entry, looked up): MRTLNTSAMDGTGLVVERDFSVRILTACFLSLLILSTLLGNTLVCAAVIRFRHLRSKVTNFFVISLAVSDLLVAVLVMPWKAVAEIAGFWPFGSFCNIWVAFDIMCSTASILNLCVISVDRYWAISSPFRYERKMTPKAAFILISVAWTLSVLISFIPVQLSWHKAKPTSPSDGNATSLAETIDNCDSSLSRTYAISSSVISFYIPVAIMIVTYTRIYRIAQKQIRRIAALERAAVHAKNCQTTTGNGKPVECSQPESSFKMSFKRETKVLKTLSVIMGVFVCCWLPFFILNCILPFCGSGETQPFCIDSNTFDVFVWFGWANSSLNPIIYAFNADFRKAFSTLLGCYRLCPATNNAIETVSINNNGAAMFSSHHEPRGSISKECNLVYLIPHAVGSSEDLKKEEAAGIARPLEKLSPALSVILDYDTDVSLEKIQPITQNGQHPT

| Compound | outcome | EC50 [nM] |
| --- | --- | --- |
| CCCNc1nc2c(c(=O)[nH]c(=O)n2C)n1CCc1ccccc1 | inactive |  |
| CC(C)Cc1nc(N2CCN(C(=O)C(C)C)CC2)c(C#N)c2c1CCC2 | inactive |  |
| CCCn1c(=NC(C)=O)c(C(=O)OCC)cc2c(=O)n3ccccc3nc21 | inactive |  |
| CC1(C)CN=C(Nc2nc3ccccc3s2)S1 | inactive |  |
| O=C(OCC#CCSc1nnc(-c2ccc(Br)cc2)o1)c1ccco1 | inactive |  |
| c1ccc(COc2nsnc2N2CCOCC2)cc1 | inactive |  |
| N#Cc1c2c(nc(N)c1-c1ccccc1)CCCCC2 | inactive |  |
| COC(=O)c1ccc(C(=O)OC)c(NC(=O)COC(=O)C23CC4CC(CC(O)(C4)C2)C3)c1 | inactive |  |
| O=C(CSc1nc2ccccc2s1)NC(=O)NCc1ccco1 | inactive |  |
| CCOc1ccc(C2Oc3nc(SC)nnc3-c3ccccc3N2C(C)=O)cc1OC (stereo not drawn) |  | 2380 |
| C=C(C)CSc1nc2c(cc1C#N)CCC2 | inactive |  |
| C=CCSc1nc2ccccc2c(=O)[nH]1 | inactive |  |
| O=C1COc2ccccc2N1Cc1ccccc1Cl | inactive |  |
| CCN(CCCNC(=O)CN(C)S(=O)(=O)c1cccc2nsnc12)c1cccc(C)c1 | inactive |  |
| COc1cccc(NC2=NCC(=O)N2Cc2cccs2)c1 | inactive |  |
| Cc1nc(-c2ccc(S(=O)(=O)N3CCCCCC3)cc2)cs1 | inactive |  |
| COc1ccc(-c2noc(CCC(N)=O)n2)cc1OC | inactive |  |
| Cc1csc2c(C#N)c(=O)c3c(n12)CCC3 | inactive |  |
| COc1ccc2nc(SCC(=O)N3CCCCCC3)c(C#N)cc2c1 | inactive |  |
| Cc1cc(SCC(=O)N2CCC(c3noc4ccc(F)cc34)CC2)nc2ccccc12 | inactive |  |
| Cc1cc(=O)c2n(Cc3ccc(Cl)cc3)nc[n+]2[nH]1 | inactive |  |
| Fc1cc(Br)ccc1Nc1nc2ccccc2n2nnnc12 | inactive |  |
| COc1ccc(-c2noc(CCN3C(=O)c4ccccc4C3=O)n2)cc1OC |  | 309 |

| Compound | outcome | EC50 [nM] |
| --- | --- | --- |
| CCc1ccc2[nH]c(=O)c(CN(Cc3nnnn3C3CCCC3)C3CCCCC3)cc2c1 | inactive |  |
| COc1ccc(-c2csc3nc(C)n(-n4cccc4)c(=O)c23)cc1OC | inactive |  |
| COC(=O)/C(=C1/Oc2cc3c(cc2S1)OCO3)C(F)(F)F | inactive |  |
| CCOC(=O)c1c(C)c(C(=O)NCc2ccccc2OC)c(C)n1C | inactive |  |
| Cc1noc(C)c1S(=O)(=O)N1CCCC(C(=O)NCc2ccccn2)C1 (stereo not drawn) | inactive |  |
| CCOC(=O)c1nc(-c2ccccc2)oc1N(C)C | inactive |  |
| O=C(c1ccco1)N1CCN(c2nc(C3CC3)nc3sc4c(c23)CCCC4)CC1 | inactive |  |
| CCn1cc(C(=O)NCC2COc3ccccc3O2)c2cc(OC)c(OC)cc2c1=O (stereo not drawn) | inactive |  |
| CCOC(=O)CCSc1nc(C)c2ccccc2n1 | inactive |  |
| CCSc1cnc(-c2ccccc2)n1CC | inactive |  |
| NC(=O)c1c(NC(=O)CSc2nnc(-c3ccco3)n2-c2ccccc2)sc2c1CCC2 | inactive |  |
| O=C(CCc1ccc(CCC(=O)c2cccs2)s1)c1cccs1 | inactive |  |
| NC(=O)COc1ccc(NC(=O)OCc2ccccc2)cc1 | inactive |  |
| COC(=O)c1ccc(CSc2nc3c(cnn3-c3ccc(F)cc3)c(=O)[nH]2)o1 |  | 2490 |
| CCOC(=O)Cc1[nH]nc2c1C(c1cccc(OC)c1OC)C(C#N)=C(N)O2 (stereo not drawn) | inactive |  |
| Cc1sc2nc(C3CC3)nc(NCCNS(C)(=O)=O)c2c1C | inactive |  |
| CC(=O)Nc1nc2n(n1)C(c1ccccc1)C=C(c1ccccc1)N2 (stereo not drawn) | inactive |  |
| C=CCNC(=O)C1CC(c2cccc(OC)c2)=NO1 (stereo not drawn) | inactive |  |
| COc1ccccc1CNC(=O)c1ccc(NS(=O)(=O)c2c(C)noc2C)cc1 | inactive |  |
| Cc1nc2ccc(CCO)cc2s1 | inactive |  |
| COc1ccc(CCNS(=O)(=O)c2ccc3c(c2)OCCO3)cc1OC | inactive |  |
| Clc1ccccc1-c1nnc2sc(-c3ccc(Br)o3)nn12 | inactive |  |
| CC(C)Cn1c(=O)c(C(=O)Nc2cnccn2)c(O)c2ccccc21 | inactive |  |

| Compound | outcome | EC50 [nM] |
| --- | --- | --- |
| Cc1ccc(-n2c(SCC(=O)OC(C)C)nnc2-c2cnccn2)cc1 | inactive |  |
| COc1ccccc1NC(=O)CC1Nc2ccccc2NC1=O (stereo not drawn) | inactive |  |
| Brc1ccc(-c2nn3c(Cc4ccccc4)nnc3s2)o1 | inactive |  |
| Cn1nnnc1SCC(=O)Nc1nc(-c2ccccc2)c(-c2ccccc2)o1 | inactive |  |
| CC(C)n1c(C(O)c2ccccc2)nc2ccccc21 (stereo not drawn) | inactive |  |
| CC(=O)N1CCC2(CC1)C(C#N)=C(N)Oc1c2sc2nc(C)cc(C)c12 | inactive |  |
| Cc1ccc2c(c1)-c1c(ssc1=S)C(C)(C)N2C(=O)CSc1nncn1C | inactive |  |
| Cc1ccc(OCCN2C(=O)OC(C)(C)C2(C)O)cc1 (stereo not drawn) | inactive |  |
| Cc1cc(C)n2c3c(c(C#N)c2n1)CCCC3 | inactive |  |
| CSC1=NCCN1C(=O)Cc1cccs1 | inactive |  |
| Clc1ccccc1-c1nn2c(-c3ccncc3)nnc2s1 | inactive |  |
| Cn1cnc2c1c(=O)n(Cc1ccc(F)cc1Cl)c(=O)n2C | inactive |  |
| Cc1c(C)c2ccc(OC3CCCCC3=O)cc2oc1=O (stereo not drawn) | inactive |  |
| CCCc1cc(=O)[nH]c(NCc2ccc(Cl)cc2)n1 | inactive |  |
| COCCNC(=O)c1c(NC(=O)c2ccco2)n(Cc2ccccc2)c2nc3ccccc3nc12 | inactive |  |
| Cc1cc(=O)oc2cc(OCC(=O)NCCc3nc4ccccc4[nH]3)ccc12 | inactive |  |
| N#CC1=C(N)n2c(s/c(=C\c3ccco3)c2=O)=C(C#N)C1c1ccco1 (stereo not drawn) | inactive |  |
| CCc1nn(CCCC(=O)N2CCc3ccccc3C2)c(=O)c2cc3occc3n12 | inactive |  |
| COc1cccc(N2C(=O)C3ON(c4ccccc4)C(c4cccs4)C3C2=O)c1 (stereo not drawn) | inactive |  |
| Cc1cc(Br)c2c(c1)=C(c1sc(N3CCCCCC3)nc1O)C(=O)N=2 |  | 1350 |
| Cc1cc(NCCCn2ccnc2)n2c(nc3ccccc32)c1C#N | inactive |  |
| CCCCNC(=O)c1cc(-c2ccc(OC)c(OC)c2)on1 | inactive |  |
| COc1ccc(S(=O)(=O)Nc2ccc3c(c2)OCO3)cc1OC | inactive |  |

| Compound | outcome | EC50 [nM] |
| --- | --- | --- |
| CN(C)c1oc(-c2ccccc2Cl)nc1C#N | inactive |  |
| Cc1ccc(Oc2ccccc2)c(NC=O)c1 | inactive |  |
| Cc1cc2cc(CN(CCN3CCOCC3)C(=O)Nc3ccccc3F)c(=O)[nH]c2cc1C | inactive |  |
| CSc1ccccc1NC(=O)c1onc(C)c1Cl | inactive |  |
| CC(C)Cn1c(=O)c2c(c3ccccc31)OC(C)C(=O)N2 (stereo not drawn) | inactive |  |
| CC(C)OC(=O)CSc1nnc(-c2cnccn2)n1-c1ccc(Cl)cc1 | inactive |  |
| Cc1nnc(SCCn2c(N3CCCC(C)C3)nc3c2c(=O)[nH]c(=O)n3C)s1 (stereo not drawn) | inactive |  |
| COc1cccc(-c2nn3c(-c4cc(C)[nH]n4)nnc3s2)c1 | inactive |  |
| COc1ccc(OC)c(C(=O)COC(=O)C2CC3CCCC(C2)C3=O)c1 (stereo not drawn) | inactive |  |
| CCOC(=O)N1CCN(C(=O)C(C)(C)Oc2ccc(Cl)cc2)CC1 | inactive |  |
| Cc1nc2sc3c(c2c(=O)[nH]1)CCC3 | inactive |  |
| CCOC(=O)c1c(C)c(C(=O)NCc2ccc3c(c2)OCO3)c(C)n1C | inactive |  |
| Cc1cc(=O)n(CC=C(Cl)Cl)c2ccccc12 | inactive |  |
| COCCNc1oc(-c2ccc(C)cc2)nc1C#N | inactive |  |
| c1ccc(Cn2nnc3c(N4CCc5ccccc54)ncnc32)cc1 | inactive |  |
| CC(=O)C1=C(C)NC(SCC(=O)c2ccc(F)cc2)=C(C#N)C1c1ccco1 (stereo not drawn) | inactive |  |
| COC(=O)c1sc(=S)sc1C(=O)OC | inactive |  |
| O=C(NCc1cccs1)C1CC(c2ccccc2O)=NO1 (stereo not drawn) | inactive |  |
| Cc1ccc(Cn2c(-n3nc(C)cc3C)nc3c2c(=O)[nH]c(=O)n3C)cc1 | inactive |  |
| C=CCn1c(=S)[nH]c2nc3c(cc2c1=O)CCCC3 | inactive |  |
| Cc1cc(NC(=O)COc2nnc(-c3ccccc3)c3ccccc23)no1 | inactive |  |
| CCC(=O)NC(=Nc1nc2ccccc2s1)NC(=O)CC | inactive |  |
| CCOC(=O)N1CCC(NC(=O)c2cccc3c2C(=O)N(Cc2cccnc2)C3)CC1 | inactive |  |

| Compound | outcome | EC50 [nM] |
| --- | --- | --- |
| Nc1nonc1-n1nnc(C(=O)c2ccccc2)c1-c1ccccc1 | inactive |  |
| CCOC(=O)C1CCCN(C(=O)c2cc(Cl)ccc2Cl)C1 (stereo not drawn) | inactive |  |
| CCCOc1ccccc1NC(=O)c1ccc(N)cc1 | inactive |  |
| C=CCn1c(SCc2nc3c(c(=O)[nH]c(=O)n3CCCC)n2CCC)nnc1-c1ccccc1 | inactive |  |
| N#Cc1cnn(Cc2ccccc2)c1/N=C/N1CCOCC1 | inactive |  |
| Cc1ccc(CCNS(=O)(=O)c2cnc[nH]2)cc1 | inactive |  |
| Nc1nc(SCC(=O)OCc2ccccc2)[nH]c(=O)c1NC(=O)c1ccco1 | inactive |  |
| COC(=O)c1c(-c2ccccc2)csc1NC(=O)c1ccco1 | inactive |  |
| CCOC(=O)C(O)(CCC(O)(C(=O)OCC)C(=O)OCC)C(=O)OCC | inactive |  |
| CCC(Sc1nc(=O)cc(N)n1CCc1ccccc1)C(=O)Nc1ccccc1C#N (stereo not drawn) | inactive |  |
| COc1ccc(C2CC(c3cc(OC)ccc3OC)n3nnnc3N2)cc1 (stereo not drawn) | inactive |  |
| O=C(CCSc1nc2ccccc2o1)N1CCOCC1 | inactive |  |
| CCc1nnc(NC(=O)CSc2ncc(-c3ccccc3)n2CC)s1 | inactive |  |
| CCn1c(SCC(=O)Nc2ccccc2N2CCCCC2)nc2c1c(=O)n(C)c(=O)n2C | inactive |  |
| CCC(=O)N1CCc2cc(S(=O)(=O)NCCC(=O)NC3CCCc4ccccc43)ccc21 (stereo not drawn) | inactive |  |
| CCCCCn1c(N)c(C#N)c2nc3ccccc3nc21 | inactive |  |
| c1ccc2c(c1)nc(NCC1CCCO1)c1nnnn12 (stereo not drawn) | inactive |  |
| CCCSc1nsc(SCCC)c1C(N)=O | inactive |  |
| CCc1nc2ccccc2c(C(=O)OCC(=O)NCc2ccco2)c1C | inactive |  |
| CSc1oc(-c2ccco2)nc1S(=O)(=O)c1ccc(F)cc1 | inactive |  |
| CCCc1nc(N2CCOCC2)c(C#N)c2c1CCCC2 | inactive |  |
